Results as given in US20240368096A1 (Enanta Pharmaceuticals, Inc., priority 2022, published 2024).

Each molecule was assayed on HBV (assay: HBV infection in HepG2-NTCP cells (HBeAg AlphaLISA in supernatants)). Conditions: Hepatitis B virus, 192 h; HBV infection of HepG2-NTCP cells; HBeAg in supernatants at day 8 post infection; read-out: Cellular EC50.
Format: cell-based
Description: HepG2-NTCP A3 cells were maintained in DMEM media supplemented with GlutaMAX™ 10% fetal bovine serum, 1% penicillin/streptomycin, and 5 μg/mL puromycin at 37° C. in a humidified atmosphere with 5% CO2 in a collagen-coated tissue culture flask.
HepG2-NTCP cells were seeded in 384 well plate containing 16,000 cells/well two days prior to the infection. On the day of infection, compounds were 3-fold serially diluted in DMSO and pre-incubated with HepG2-NTCP cells for two hours before purified HBV addition. HBV infection was carried out at 2000 GE/cell with 4% PEG, and the final concentration of DMSO is 0.5%. On day one post infection, HBV-containing media was aspirated, cells were washed once with PBS and then maintained in 2.5% DMSO containing media for the remainder of the assay.
Supernatants from infected HepG2-NTCP cells were collected at day 8 post infection, and the amount of viral antigen HBeAg was measured by HBeAg AlphaLISA detection kit (PerkinElmer) following the manufacturer's recommended protocol. Irrespective of readout, compound concentrations that reduce viral product accumulation in supernatants by […] relative to DMSO controls (EC50) are reported. EC50 ranges are as follows: A<0.1 μM; B 0.1-1 μM; C>1 μM.

Row | EC50 | Compound
1 | < 0.1 µM | CN1[C@H](C2CCC2)CN(c2ccccc2)c2cc(Cl)c(-c3cc(F)c(C(=O)O)s3)cc2S1(=O)=O [Example 121]
2 | < 0.1 µM | Cc1sc(-c2cc3c(cc2Cl)N(c2ccccc2)C[C@@H](C2CCCCC2)N(C)S3(=O)=O)cc1C(=O)O [Example 122]
3 | < 0.1 µM | CN1[C@H](C2CCCCC2)CN(c2ccccc2)c2cc(Cl)c(-c3cc(C(=O)O)c(Cl)s3)cc2S1(=O)=O [Example 123]
4 | < 0.1 µM | Cc1cc(-c2cc3c(cc2Cl)N(c2ccccc2)C[C@@H](C2CCCCC2)N(C)S3(=O)=O)oc1C(=O)O [Example 124]
5 | 0.1 to 1 µM | Cc1sc(-c2cc3c(cc2Cl)N(c2ccccc2)C[C@@H](C2CCCCC2)N(C)S3(=O)=O)nc1C(=O)O [Example 125]
6 | 0.1 to 1 µM | CN1[C@H](C2CCCCC2)CN(c2ccccc2)c2cc(Cl)c(-c3cc(C(=O)O)cs3)cc2S1(=O)=O [Example 129, (R)-5-(7-chloro-3-cyclohexyl-2-methyl-1,1-dioxido-5-phenyl-2,3,4,5-tetrahydrobenzo[f][1,2,5]thiadiazepin-8-yl)thiophene-3-carboxylic acid]
7 | < 0.1 µM | CN1[C@H](C2CCCCC2)CN(c2ccccc2)c2cc(Cl)c(-c3ccc(C(=O)O)s3)cc2S1(=O)=O [Example 130, (R)-5-(7-chloro-3-cyclohexyl-2-methyl-1,1-dioxido-5-phenyl-2,3,4,5-tetrahydrobenzo[f][1,2,5]thiadiazepin-8-yl)thiophene-2-carboxylic acid]
8 | 0.1 to 1 µM | CN1[C@H](C2CCCCC2)CN(c2ccccc2)c2cc(Cl)c(-c3nc(C(=O)O)co3)cc2S1(=O)=O [Example 131, (R)-2-(7-chloro-3-cyclohexyl-2-methyl-1,1-dioxido-5-phenyl-2,3,4,5-tetrahydrobenzo[f][1,2,5]thiadiazepin-8-yl)oxazole-4-carboxylic acid]
9 | 0.1 to 1 µM | CN1[C@H](C2CCCCC2)CN(c2ccccc2)c2cc(Cl)c(-c3ncc(C(=O)O)o3)cc2S1(=O)=O [Example 132, (R)-2-(7-chloro-3-cyclohexyl-2-methyl-1,1-dioxido-5-phenyl-2,3,4,5-tetrahydrobenzo[f][1,2,5]thiadiazepin-8-yl)oxazole-5-carboxylic acid]
10 | 0.1 to 1 µM | CN1[C@H](C2CCCCC2)CN(c2ccccc2)c2cc(Cl)c(-c3cc(C(=O)O)nn3C)cc2S1(=O)=O [Example 133, (R)-5-(7-chloro-3-cyclohexyl-2-methyl-1,1-dioxido-5-phenyl-2,3,4,5-tetrahydrobenzo[f][1,2,5]thiadiazepin-8-yl)-1-methyl-1H-pyrazole-3-carboxylic acid]
11 | < 0.1 µM | CN1[C@H](C2CCCCC2)CN(c2ccccc2)c2cc(Cl)c(-c3cc(C(=O)O)n(C)n3)cc2S1(=O)=O [Example 134]
12 | 0.1 to 1 µM | CN1[C@H](C2CCCCC2)CN(c2ccccc2)c2cc(Cl)c(-c3cc(C(=O)O)[nH]n3)cc2S1(=O)=O [Example 135, (R)-3-(7-chloro-3-cyclohexyl-2-methyl-1,1-dioxido-5-phenyl-2,3,4,5-tetrahydrobenzo[f][1,2,5]thiadiazepin-8-yl)-1H-pyrazole-5-carboxylic acid]
13 | > 1 µM | CN1[C@H](C2CCCCC2)CN(c2ccccc2)c2cc(Cl)c(-c3cncc(C(=O)O)c3)cc2S1(=O)=O [Example 136, (R)-5-(7-chloro-3-cyclohexyl-2-methyl-1,1-dioxido-5-phenyl-2,3,4,5-tetrahydrobenzo[f][1,2,5]thiadiazepin-8-yl)nicotinic acid]
14 | 0.1 to 1 µM | CN1[C@H](C2CCCCC2)CN(c2ccccc2)c2cc(Cl)c(-c3ccnc(C(=O)O)c3)cc2S1(=O)=O [Example 137, (R)-4-(7-chloro-3-cyclohexyl-2-methyl-1,1-dioxido-5-phenyl-2,3,4,5-tetrahydrobenzo[f][1,2,5]thiadiazepin-8-yl)picolinic acid]
15 | 0.1 to 1 µM | CN1[C@H](C2CCCCC2)CN(c2ccccc2)c2cc(Cl)c(-c3cccc(C(=O)O)n3)cc2S1(=O)=O [Example 138, (R)-6-(7-chloro-3-cyclohexyl-2-methyl-1,1-dioxido-5-phenyl-2,3,4,5-tetrahydrobenzo[f][1,2,5]thiadiazepin-8-yl)picolinic acid]
16 | 0.1 to 1 µM | CN1[C@H](C2CCCCC2)CN(c2ccccc2)c2cc(Cl)c(-c3cc(C(=O)O)ccn3)cc2S1(=O)=O [Example 139, (R)-2-(7-chloro-3-cyclohexyl-2-methyl-1,1-dioxido-5-phenyl-2,3,4,5-tetrahydrobenzo[f][1,2,5]thiadiazepin-8-yl)isonicotinic acid]
17 | 0.1 to 1 µM | CN1[C@H](C2CCCCC2)CN(c2ccccc2)c2cc(Cl)c(-c3cc(C(=O)O)ncn3)cc2S1(=O)=O [Example 140, (R)-6-(7-chloro-3-cyclohexyl-2-methyl-1,1-dioxido-5-phenyl-2,3,4,5-tetrahydrobenzo[f][1,2,5]thiadiazepin-8-yl)pyrimidine-4-carboxylic acid]
18 | 0.1 to 1 µM | CN1[C@H](C2CCCCC2)CN(c2ccccc2)c2cc(Cl)c(-c3ccc(F)c(C(=O)O)n3)cc2S1(=O)=O [Example 141, (R)-6-(7-chloro-3-cyclohexyl-2-methyl-1,1-dioxido-5-phenyl-2,3,4,5-tetrahydrobenzo[f][1,2,5]thiadiazepin-8-yl)-3-fluoropicolinic acid]
19 | 0.1 to 1 µM | CN1[C@H](C2CCCCC2)CN(c2ccccc2)c2cc(Cl)c(-c3cc(C(=O)O)cc(C(F)(F)F)c3)cc2S1(=O)=O [Example 142, (R)-3-(7-chloro-3-cyclohexyl-2-methyl-1,1-dioxido-5-phenyl-2,3,4,5-tetrahydrobenzo[f][1,2,5]thiadiazepin-8-yl)-5-(trifluoromethyl)benzoic acid]
20 | 0.1 to 1 µM | CN1[C@H](C2CCCCC2)CN(c2ccccc2)c2cc(Cl)c(-c3ccc(C(F)(F)F)c(C(=O)O)c3)cc2S1(=O)=O [Example 143, (R)-5-(7-chloro-3-cyclohexyl-2-methyl-1,1-dioxido-5-phenyl-2,3,4,5-tetrahydrobenzo[f][1,2,5]thiadiazepin-8-yl)-2-(trifluoromethyl)benzoic acid]

Second part, the molecule before the results:

Row | Compound | EC50
21 | CN1[C@H](C2CCCCO2)CN(c2ccccc2)c2cc(Cl)c(-c3ccc(F)c(C(=O)O)c3)cc2S1(=O)=O (stereo partly drawn) [Example 104, 5-((3S)-7-chloro-2-methyl-1,1-dioxido-5-phenyl-3-(tetrahydro-2H-pyran-2-yl)-2,3,4,5-tetrahydrobenzo[f][1,2,5]thiadiazepin-8-yl)-2-fluorobenzoic acid] | 0.1 to 1 µM
22 | CN1[C@H](C2CCOCC2)CN(c2ccccc2)c2cc(Cl)c(-c3ccc(F)c(C(=O)O)c3)cc2S1(=O)=O [Example 105, (R)-5-(7-chloro-2-methyl-1,1-dioxido-5-phenyl-3-(tetrahydro-2H-pyran-4-yl)-2,3,4,5-tetrahydrobenzo[f][1,2,5]thiadiazepin-8-yl)-2-fluorobenzoic acid] | 0.1 to 1 µM
23 | CN1[C@H](C2COC2)CN(c2ccccc2)c2cc(Cl)c(-c3ccc(F)c(C(=O)O)c3)cc2S1(=O)=O [Example 106] | > 1 µM
24 | CN1[C@H](CBr)CN(c2ccccc2)c2cc(Cl)c(-c3ccc(F)c(C(=O)O)c3)cc2S1(=O)=O [Example 107, (S)-5-(3-(bromomethyl)-7-chloro-2-methyl-1,1-dioxido-5-phenyl-2,3,4,5-tetrahydrobenzo[f][1,2,5]thiadiazepin-8-yl)-2-fluorobenzoic acid] | > 1 µM
25 | CN1[C@H](CN2CCCCC2)CN(c2ccccc2)c2cc(Cl)c(-c3ccc(F)c(C(=O)O)c3)cc2S1(=O)=O [Example 108, (R)-5-(7-chloro-2-methyl-1,1-dioxido-5-phenyl-3-(piperidin-1-ylmethyl)-2,3,4,5-tetrahydrobenzo[f][1,2,5]thiadiazepin-8-yl)-2-fluorobenzoic acid] | > 1 µM
26 | CN1[C@H](CN2CCOCC2)CN(c2ccccc2)c2cc(Cl)c(-c3ccc(F)c(C(=O)O)c3)cc2S1(=O)=O [Example 109] | > 1 µM
27 | CN1[C@H](CN2CCCC2)CN(c2ccccc2)c2cc(Cl)c(-c3ccc(F)c(C(=O)O)c3)cc2S1(=O)=O [Example 110] | > 1 µM
28 | CN1[C@H](CN2CCC(F)(F)C2)CN(c2ccccc2)c2cc(Cl)c(-c3ccc(F)c(C(=O)O)c3)cc2S1(=O)=O [Example 111] | > 1 µM
29 | CN1[C@H](CN2CCCC(F)(F)C2)CN(c2ccccc2)c2cc(Cl)c(-c3ccc(F)c(C(=O)O)c3)cc2S1(=O)=O [Example 112] | > 1 µM
30 | CN1[C@H](CN2CCC(F)(F)CC2)CN(c2ccccc2)c2cc(Cl)c(-c3ccc(F)c(C(=O)O)c3)cc2S1(=O)=O [Example 113] | > 1 µM
31 | CN1[C@H](CNC(C)(C)C)CN(c2ccccc2)c2cc(Cl)c(-c3ccc(F)c(C(=O)O)c3)cc2S1(=O)=O [Example 114] | > 1 µM
32 | CN1[C@H](CN2CCCC2=O)CN(c2ccccc2)c2cc(Cl)c(-c3ccc(F)c(C(=O)O)c3)cc2S1(=O)=O [Example 115] | > 1 µM
33 | CN1[C@H](C2CCCCC2)CN(c2ccccc2)c2cc(Cl)c(-c3cc(Cl)c(C(=O)O)s3)cc2S1(=O)=O [Example 117] | < 0.1 µM
34 | COc1cc(-c2cc3c(cc2Cl)N(c2ccccc2)C[C@@H](C2CCCCC2)N(C)S3(=O)=O)sc1C(=O)O [Example 118] | < 0.1 µM
35 | CN1[C@H](C2CCCCC2)CN(c2ccccc2)c2cc(Cl)c(-c3sc(C(=O)O)cc3F)cc2S1(=O)=O [Example 119] | < 0.1 µM
36 | CC(C)[C@@H]1CN(c2ccccc2)c2cc(Cl)c(-c3cc(F)c(C(=O)O)s3)cc2S(=O)(=O)N1C [Example 120] | < 0.1 µM
